The values that follow come from patent US20190046481A1, “TRANSDERMAL FORMULATIONS FOR DELIVERY OF PROPIONIC AND ACETIC ACID NSAIDS, AND THEIR USE IN THE TREATMENT OF NSAID-RESPONSIVE DISEASES AND CONDITIONS” (DELIVRA INC., priority 2015, published 2019).

The nature of data set [1]: in vivo. The settings on record: dog.
Source text: (§1) 12 dogs with radiographic evidence of osteoarthritis (OA) were utilized to compare the concentration of ibuprofen in both blood and synovial fluid following transdermal delivery of ibuprofen formulated in base formulation and oral delivery in capsules. The 12 dogs were randomly divided into two groups of six subjects; one group received the oral positive treatment control and the other group received the transdermal treatment. The treatment cycle consisted of six days twice daily followed by a period of seven days devoid of treatment. Blood and synovial fluid samples (from both stifles and shoulders) were collected on the last (sixth) day of drug application and on the last (seventh) day of the washout period.
(§2) Test article: 1.5% (w/w) ibuprofen in base formulation (4); ˜1 g gel per shoulder joint twice daily (i.e. 15 mg ibuprofen per shoulder joint twice daily). Control article: base formulation; ˜1 g gel per shoulder joint twice daily. Positive Control: 30 mg ibuprofen in capsule PO twice daily.
(§3) Whole blood and synovial fluid samples were collected from the dogs 60 mins post treatment on the 7th day, and additional samples were collected after a 7 day washout. Baseline synovial fluid was collected from untreated canine subjects. Synovial fluid was collected under sedation (medetomidine (0.01 mg/kg) and butorphenol (0.1 mg/kg) IV). The fluid was collected by arthrocentesis into the joint following surgical preparation of the area. Synovial fluid was collected from stifle or shoulder joints.
For data set [2] the following is noted: for Serum drug concentration: dog, in vivo.
Source text: as §1, §2, §3
Data set [3] is described as follows: in vivo. To be noted: for concentration at 7 days / Synovial Fluid drug concentration: dog, in vivo. From the text: Baseline synovial fluid was collected from untreated canine subjects. […] Synovial fluid was collected from stifle or shoulder joints.
Error bars depicted standard error of the mean.

Data set [4] has as its system aged Beagle dogs with radiographic evidence of osteoarthritis. Put plainly: Modified canine brief pain inventory questionnaire in aged dogs with osteoarthritis. It is filed as in vivo. The settings on record: test day 5; for cumulative pain score compared to baseline: about 1.5 hours after administration. As for the experimental part: This study used a blinded parallel group design with a total of eighteen (18) aged Beagle dogs greater than six years of age with radiographic evidence of osteoarthritis. The dogs were randomized to three groups of six subjects balanced on baseline pain levels determined using a modified canine brief pain inventory questionnaire in which a technician evaluated levels of pain and functional impairment in a standardized obstacle test over two baseline days. […] Dogs were tested on the modified canine brief pain inventory questionnaire daily over 7 days approximately 1.5 hours following administration of their respective treatments. Over the subsequent five test days, the same treatment doses were administered twice daily (i.e., doubling the daily dose), except that a loading dose was administered in the morning of the first day, which consisted of twice the daily dose level used initially (i.e., triple initial dose on the first day). The technicians assessing pain and function with the questionnaire were blinded to treatment conditions. Twice daily observations were conducted for the duration of the study.
Transdermal and oral naproxen were evaluated compared to a negative control as described in the Study Design. […] Questionnaire testing occurred approximately 1.5 hours following the morning dose administration of the test compounds. The two most affected joints of each subject were shaved prior to the first day of drug administration in all treatment groups.
Subjects were assessed on a pain questionnaire once daily on test days. […] Specifically, the ability of each dog to walk, trot, gallop, rear, jump over a low obstacle, climb and descend stairs, jump down from a perch and general activity was evaluated in addition to a subjective evaluation of pain during evaluation of each function. […]
The data consisted of whole number scored for 13 questions assessing measures of both pain (0-2) and functional impairment (0-4), as well as an overall pain and function question (0-4). A cumulative pain and functional impairment score was calculated from all […] for both the pain and functional impairment measures on a daily basis as applicable. […] Subsequently, difference from the baseline scores were calculated for the fifth test day at each dose and subjected to a similar RMANOVA analysis. […]
The dogs were randomized to three groups of six subjects based on mean baseline pain levels determined using a modified canine brief pain inventory questionnaire over two baseline days. […] Pain was evaluated using the pain questionnaire, which was administered approximately 1.5 hours following administration of their respective treatments. […] Data from the fifth treatment day at each dose compared to baseline was statistically evaluated.

Data set [5] is described as follows: Naproxen quantification in canine sera (LC-MS/MS). Format: in vivo, Beagle dogs. To be noted: both sexes, Beagle, dog, serum, oral, mean+/−SEM. As for the experimental part: A 1 mg/mL stock solution of d3-naproxen was prepared in dimethyl sulfoxide. […] A solution of 200 ng/mL of d3-naproxen was prepared by adding 4 μL of 50 μg/mL solution of d3-naproxen to 996 μL methanol/water (70:30) (stock solution B).
Isocratic chromatographic separation was performed on a Zorbax Eclipse XDB-C18 column (150×4.6 mm I.D., 5 μm particle size, Agilent, Santa Clara, Calif., USA, SN USKH095544) with a XDB-C18 guard column (12.5×4.6 mm I.D., μm particle size, Agilent, Santa Clara, Calif., USA, SN USLE034730) using a mobile phase of acetonitrile/0.02 M NH4OAc (pH=4.00) (70:30) at a flow rate of 0.500 mL/min for 6 min. […] There was a post time of 0.10 min. The column temperature was 40° C. and the autosampler temperature was maintained at 4° C. The sample injection volume was 10 μL. A 4000 Q trap from AB Sciex Instruments equipped with an electrospray ionization (ES1) was used in the negative ion mode with multiple reaction monitoring (MRM) for the quantitative analysis. Nitrogen was used as the collision gas and the curtain gas. […] Analytical data were acquired and quantification processing was performed by using Analyst software.
Six aged Beagle dogs (>6 years) of both sexes with quantified radiographic evidence of osteoarthritis were used for the study. […]

The mark [6] stands for this setting: Dose 2 (high dose, twice daily).

Like-named read-outs stand apart in the source and are kept apart here.

Regarding `CC(C)Cc1ccc(C(C)C(=O)O)cc1` (centres unmarked) [Ibuprofen], the concentration at 7 days was 58.5 ng/mL in data set [1], 8.5 ng/mL in data set [1] (po), 58.5 ng/mL in data set [3] and 8.5 ng/mL in data set [3] (po). Further, the Serum drug concentration is 2,904 (±1,212) ng/mL in data set [2] (60 min); 59 (±38)^□ ng/mL in data set [2] (7 days); 15,420 (±3,450) ng/mL in data set [2] (po, 60 min); 9 (±4)^□ ng/mL in data set [2] (po, 7 days). Also, the “reduction of circulating drug by a one week washout period” value in data set [2] (serum, oral or transdermal) is reported as > 95%. Further, the “Synovial Fluid drug concentration” value in data set [3] (60 min) was 1,711 (±828) ng/mL; in data set [3] (7 days), 31 (±21)^□ ng/mL; in data set [3] (po, 60 min), 2,065 (±1,070) ng/mL; in data set [3] (po, 7 days), 5 (±3)^□ ng/mL. The “reduction of drug by a one week washout period” value in data set [3] (synovial fluid, oral or transdermal) was > 95%.
As to `COc1ccc2cc([C@H](C)C(=O)O)ccc2c1` [oral naproxen, Naproxen], in data set [4] (Dose 1 (low dose, once daily)), the “cumulative pain score difference from mean baseline compared to negative control” value is given as “reduced pain at only the low dose” and the “cumulative pain score compared to baseline” value is “significant decrease from baseline”. For the same compound, in data set [4] (setting [6]), the “cumulative pain score difference from mean baseline compared to negative control” value was “reduced pain at only the low dose” and the “cumulative pain score compared to baseline” value is on record as “reduced measures of pain at only the low dose”. Also, the concentration at 60 min in data set [5] (capsule PO once daily for seven days, 60 minutes post administration) stood at 102000 ng/mL. Also, in data set [5] (seven day washout), the concentration at 7 days amounted to 16200 ng/mL.
